Assay results published in patent US6825209B2, “Compounds having unique CB1 receptor binding selectivity and methods for their production and use” (Research Triangle Institute, priority 2002, dated 2004).
Like-named read-outs stand apart in the source and are kept apart here.

Experiments:
Format in all cases: binding
[1] = molecular target: T1, CB1 receptor (Rattus norvegicus, UniProt P20272); experiment: Radioligand displacement in whole rat brain (CB1) membrane preparations
T1 construct: Whole rat brains or dissected regions from live CD rats; tissue Charles River or Pel-Freez Biologicals; host or cells: whole rat brain (CD rats), P2 membrane
Excerpt: CB1 receptor affinity in rat brain.
Methods—membrane preparation from brain. The methods for tissue preparation are essentially those described by Devane et al. (1988) as modified by Compton et al. (1993) and later by Thomas et al. (1998). Whole rat brains or dissected regions from live CD rats from Charles River or Pel-Freez Biologicals (Rogers, Ark.), or human brain sections obtained from the National Disease Research Institute, were allowed to thaw to room temperature on ice. Both whole brain and dissected brain regions were used because different brain regions may express different cannabinoid receptor subtypes (Skaper et al., 1996; Thomas et al., 1998). The tissue was homogenized with a Kontes Potter-Elvehjem glass-Teflon grinding system (Fisher Scientific, Springfield, N.J.) in buffer 1 (320 mM sucrose, 2 mM EDTA, 5 mM MgCl2. The homogenate was centrifuged at 1600 g for 10 min. The supernatant was saved and combined with the two subsequent supernatants obtained from washing and 1600 g centrifugation of the P1 pellet. The combined supernatant fractions were then centrifuged at 39,000 g for 15 min. The P2 pellet was resuspended in 50 mL of buffer 2 (50 mM Tris.HCl, 2 mM EDTA, 5 mM MgCl2, pH 7.0), incubated at 37° C. for 10 min, then centrifuged at 23,000 g for 10 min. The P2 membrane was resuspended in 50 mL of buffer 2, incubated at 30° C. for 40 min, then centrifuged at 11,000 g for 15 min. The final wash-treated P2 pellet was resuspended in assay buffer 3 (50 mM Tris.HCl, 1 mM EDTA, 3 MM MgCl2, pH 7.4). Protein concentrations were determined by the method of Bradford (1976) using Coomassie brilliant blue dye (Bio-Rad, Richmond, Calif.) and BSA standards (bovine serum albumin, fatty acid free, Sigma Chemical Co., St. Louis, Mo.) prepared in assay buffer 3. The membrane preparation was divided into aliquots and stored at −80° C. For use in the binding assay, an aliquot of frozen membranes was thawed on ice and diluted to a concentration of ca. 0.2 mg/mL in assay buffer.
Methods—binding assay in brain membrane preparation. The methods for ligand binding are essentially those described by Devane et al. (1988) with the exception that we used a filtration assay. […] All cannabinoid analogs were prepared by suspension in buffer A from a 1-5 mg/mL ethanolic stock. Following incubation at 30° C. for 1 h, binding was terminated by vacuum filtration through pretreated filters in a 96-well sampling manifold (Millipore, Bedford, Mass.). Reaction vessels were washed at least 3 times with 1 mL of ice cold buffer B (50 mM Tris.HCl, 1 mg/mL BSA). The filter plates were air-dried and sealed on the bottom. Liquid scintillant was added to the wells and the top sealed. After incubating the plates in cocktail for at least 2 h, the radioactivity present was determined by liquid scintillation spectrometry. Assays were done in duplicate, and results represent the combined data of three to six independent experiments. All assays were performed in polypropylene test tubes. The GF/C glassfiber filter plates (Packard, Meriden, Conn.) were pretreated in buffer B for at least 1 h.
(§1) Data analysis. Saturation and displacement data were analyzed by unweighted nonlinear regression of receptor binding data. For displacement studies, curve-fitting and IC50 calculation were done with GraphPad Prism (GraphPad Software, Inc., San Diego, Calif.), which fits the data to one and two-site models and compares the two fits statistically. A similar approach was used for the analysis of isotherm data for calculation of Kd's. A two-site fit was accepted only if it was statistically significant (p<0.05) and the following results were not observed:
(§2) IC50 values were then converted to Ki values by reported methods (Cheng and Prusoff, 1973). The statistical evaluation of curve-fitting data allowed for a non-arbitrary conclusion based on the displacement data.

[2] = molecular target: T2, human CB1 receptor (Homo sapiens, UniProt P21554); experiment: Radioligand displacement in human CB1 receptor-transfected cells (HEK-293)
T2 construct: expressed in transfected cells; host or cells: HEK-293
Procedure: Human CB1 receptor affinity. The alkyl amide analogs of the present invention were examined using transfected cell lines expressing the human CB1 receptor (Table 3).
(§3) Methods—binding assay in transfected cell lines. The methods used for performing binding assays in transfected cells expressing human CB1 or CB2 receptors are those used above. The CB1 receptor involved a HEK-293 expression system whereas the CB2 receptor was expressed in CHO-K1 cells. […] The incubations and separations were then performed as described above for rat brain membrane preparations.
as §1, §2

[3] = molecular target: T3, human CB2 receptor (Homo sapiens, UniProt P34972); experiment: Displacement of 3H-CP55,940 in human CB2 receptor-transfected cells (CHO-K1); conditions: radioligand 3H-CP55940, Tables 6 and 7
T3 construct: expressed in transfected cells; host or cells: CHO-K1
Procedure: Human CB2 receptor affinity. The relative selectivity of the analogs for CB1 versus CB2 receptors varied modestly regardless of the structural modifications examined to date.
as §3, §1, §2

[4] = whole rat brain membranes, radioligand 3H-CP55940, Tables 1 and 2
[5] = whole rat brain membranes, radioligand 3H-SR141716A, Tables 1 and 2
[6] = Ki, displacement of 3H-CP55940, whole rat brain, 3H-CP55940, Table 4, parallel synthesis analogs, n = 1, concentration assumes 100% yield
[7] = Ki, displacement of 3H-SR141716A, whole rat brain, 3H-SR141716A, Table 4, parallel synthesis analogs, n = 1, concentration assumes 100% yield
[8] = Ki, displacement of 3H-WIN55212-2, whole rat brain, 3H-WIN55212-2, Table 4, parallel synthesis analogs, n = 1, concentration assumes 100% yield
[9] = whole rat brain, 3H-CP55940, Table 4, parallel synthesis analogs, n = 1
[10] = whole rat brain, 3H-SR141716A, Table 4, parallel synthesis analogs, n = 1
[11] = whole rat brain, 3H-WIN55212-2, Table 4, parallel synthesis analogs, n = 1
[12] = displacement of 3H-CP55940, human CB1 transfected cells, 3H-CP55940, Table 5, parallel synthesis analogs, concentration assumes 100% yield
[13] = displacement of 3H-SR141716A, human CB1 transfected cells, 3H-SR141716A, Table 5, parallel synthesis analogs, concentration assumes 100% yield
[14] = displacement of 3H-WIN55212-2, human CB1 transfected cells, 3H-WIN55212-2, Table 5, parallel synthesis analogs, concentration assumes 100% yield
[15] = human CB1 transfected cells, 3H-CP55940, Table 5, parallel synthesis analogs
[16] = human CB1 transfected cells, 3H-SR141716A, Table 5, parallel synthesis analogs
[17] = human CB1 transfected cells, 3H-WIN55212-2, Table 5, parallel synthesis analogs

T2 sequence (P21554 whole entry): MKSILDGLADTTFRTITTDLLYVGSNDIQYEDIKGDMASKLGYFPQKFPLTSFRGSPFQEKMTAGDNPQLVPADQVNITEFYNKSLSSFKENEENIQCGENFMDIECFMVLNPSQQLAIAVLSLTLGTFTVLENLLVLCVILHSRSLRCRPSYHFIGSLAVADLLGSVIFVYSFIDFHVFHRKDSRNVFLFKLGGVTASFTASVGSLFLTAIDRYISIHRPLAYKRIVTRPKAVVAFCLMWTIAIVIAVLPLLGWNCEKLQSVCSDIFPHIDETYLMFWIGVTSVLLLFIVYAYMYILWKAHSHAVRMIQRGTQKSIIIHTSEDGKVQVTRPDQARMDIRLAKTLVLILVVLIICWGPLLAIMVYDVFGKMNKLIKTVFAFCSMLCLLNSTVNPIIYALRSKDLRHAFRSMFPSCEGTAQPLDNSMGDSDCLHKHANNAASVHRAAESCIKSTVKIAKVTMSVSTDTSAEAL
T1 sequence (P20272 whole entry): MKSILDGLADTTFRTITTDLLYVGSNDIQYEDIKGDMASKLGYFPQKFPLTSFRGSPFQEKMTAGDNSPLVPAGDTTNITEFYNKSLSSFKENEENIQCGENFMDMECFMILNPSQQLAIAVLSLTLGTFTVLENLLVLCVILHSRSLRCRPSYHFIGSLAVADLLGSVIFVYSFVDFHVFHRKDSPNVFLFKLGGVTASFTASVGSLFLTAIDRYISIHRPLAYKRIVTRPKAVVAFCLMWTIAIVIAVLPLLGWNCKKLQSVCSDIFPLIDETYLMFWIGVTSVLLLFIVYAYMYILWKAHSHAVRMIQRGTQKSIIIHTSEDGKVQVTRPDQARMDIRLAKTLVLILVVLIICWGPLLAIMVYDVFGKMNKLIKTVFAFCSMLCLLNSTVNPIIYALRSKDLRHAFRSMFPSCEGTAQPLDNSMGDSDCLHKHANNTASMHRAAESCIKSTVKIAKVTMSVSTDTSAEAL
T3 sequence (P34972 whole entry): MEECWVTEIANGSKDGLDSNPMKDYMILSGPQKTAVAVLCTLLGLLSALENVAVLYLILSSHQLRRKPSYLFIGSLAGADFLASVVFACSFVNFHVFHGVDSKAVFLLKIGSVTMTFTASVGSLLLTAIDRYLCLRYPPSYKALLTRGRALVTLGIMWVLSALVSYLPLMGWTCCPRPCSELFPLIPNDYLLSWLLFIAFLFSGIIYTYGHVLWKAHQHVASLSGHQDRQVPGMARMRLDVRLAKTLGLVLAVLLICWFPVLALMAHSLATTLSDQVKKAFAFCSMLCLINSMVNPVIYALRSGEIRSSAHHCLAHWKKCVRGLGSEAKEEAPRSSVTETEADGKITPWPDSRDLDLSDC

Structure (SMILES) | Max. Disp. %, 3H-CP55940 [1, 4] | Max. Disp. %, 3H-SR141716A [1, 5] | Max. Disp. %, 3H-CP55940 ([3]; human CB2 transfected cells) | Ki [1, 6] | Ki [1, 7] | Ki [1, 8] | Max. Disp. %, 3H-CP55940 [1, 9] | Max. Disp. %, 3H-SR141716A [1, 10] | Max. Disp. %, 3H-WIN55212-2 [1, 11] | Ki [2, 12] | Ki [2, 13] | Ki [2, 14] | Max. Disp. %, 3H-CP55940 [2, 15] | Max. Disp. %, 3H-SR141716A [2, 16] | Max. Disp. %, 3H-WIN55212-2 [2, 17] | further results
CCCCCCC(C)(C)NC(=O)c1nn(-c2ccc(Cl)cc2Cl)c(-c2ccc(Cl)cc2)c1C [MF10110-119-11] | 83.2% | 76.4% | 52.8% |  |  |  |  |  |  |  |  |  |  |  |  | Ki ([1]; Ki, displacement of 3H-CP55940, whole rat brain membranes, radioligand 3H-CP55940, Tables 1 and 2): 181 nM; Ki ([1]; Ki, displacement of 3H-SR141716A, whole rat brain membranes, radioligand 3H-SR141716A, Tables 1 and 2): 21.6 nM; Ki ([1]; Ki, displacement of 3H-WIN55212-2, whole rat brain membranes, radioligand 3H-WIN55212-2, Tables 1 and 2): 10.4 nM; Max. Disp. %, 3H-WIN55212-2 ([1]; whole rat brain membranes, radioligand 3H-WIN55212-2, Tables 1 and 2): 72.2%; Max. Disp. %, 3H-SR141716A [2]: 99.9%; Max. Disp. %, 3H-WIN55212-2 [2]: 86.5%; Ki ([2]; displacement of 3H-CP55940): 32.7 nM; Ki ([2]; displacement of 3H-SR141716A): 5 nM; Ki ([2]; displacement of 3H-WIN55212-2): 14.4 nM; Ki ([3]; Ki, displacement of 3H-CP55940, human CB2 transfected cells): 16600 nM
Cc1c(C(=O)NO)nn(-c2ccc(Cl)cc2Cl)c1-c1ccc(Cl)cc1 [MF9725-131-25] | 58.4% | 65.7% | 27.0% |  |  |  |  |  |  |  |  |  |  |  |  | Ki ([1]; read-out: Ki, displacement of 3H-CP55940, whole rat brain membranes, radioligand 3H-CP55940, Tables 1 and 2): 1690 nM; Ki ([1]; read-out: Ki, displacement of 3H-SR141716A, whole rat brain membranes, radioligand 3H-SR141716A, Tables 1 and 2): 1560 nM; Ki ([3]; read-out: Ki, displacement of 3H-CP55940, human CB2 transfected cells): 7820 nM
Cc1c(C(=O)O)nn(-c2ccc(Cl)cc2Cl)c1-c1ccc(Cl)cc1 [SH9631-55] | 8.2% | 0% | 0.0% |  |  |  |  |  |  |  |  |  |  |  |  | Ki, displacement of 3H-SR141716A [1, 5]: Nr; Ki, displacement of 3H-CP55940 ([3]; human CB2 transfected cells): nr
Cc1c(C(=O)NCCc2ccc(O)cc2)nn(-c2ccc(Cl)cc2Cl)c1-c1ccc(Cl)cc1 [AM-52] |  |  |  | 71.4 nM | 29.8 nM | 326 nM | 84.7% | 100% | 94.9% | 106 nM | 13.6 nM | 162 nM | 96.1% | 99.5% | 100% | 
CCCCCCCCCC(C)NC(=O)c1nn(-c2ccc(Cl)cc2Cl)c(-c2ccc(Cl)cc2)c1C (stereo not drawn) [AKS-10262-3] |  |  |  | 27.1 nM | 9.7 nM | 22.3 nM | 83.7% | 97.3% | 82.4% | 41.1 nM | 7 nM | 22.2 nM | 77.7% | 90.0% | 76.1% | 
Cc1c(C(=O)NC(C)CCC(C)C)nn(-c2ccc(Cl)cc2Cl)c1-c1ccc(Cl)cc1 (stereo not drawn) [AKS-10262-8] |  |  |  | 3.37 nM | 2.81 nM | 28.6 nM | 76.6% | 96.2% | 94.1% | 13.2 nM | 5.48 nM | 33.2 nM | 76.8% | 93.6% | 91.5% | 
Cc1c(C(=O)NC(C)CCCC(C)C)nn(-c2ccc(Cl)cc2Cl)c1-c1ccc(Cl)cc1 (stereo not drawn) [AKS-10262-7] |  |  |  | 8.97 nM | 3.57 nM | 5.76 nM | 89.6% | 95.1% | 87.7% |  |  |  |  |  |  | Max. Disp. %, 3H-CP55940 [2]: 82.5%; Max. Disp. %, 3H-SR141716A [2]: 93.7%; Max. Disp. %, 3H-WIN55212-2 [2]: 67.9%; Ki ([2]; displacement of 3H-CP55940): 7.39 nM; Ki ([2]; displacement of 3H-SR141716A): 2.1 nM; Ki ([2]; displacement of 3H-WIN55212-2): 64.2 nM
Cc1c(C(=O)NCCC(c2ccccc2)c2ccccc2)nn(-c2ccc(Cl)cc2Cl)c1-c1ccc(Cl)cc1 [AKS-10262-9] |  |  |  | 19.9 nM | 5.52 nM | 10.3 nM | 90.1% | 96.0% | 81.1% | 25.2 nM | 3.28 nM | 16.9 nM | 88.1% | 96.7% | 77.3% | 
